Entries after “also recorded” stand apart in the source; their conditions may differ.
Columns and labels:
myelinating co-cultures = test: Myelinating co-culture in vitro (MBP area normalized to SM131 axons); type: cell-based; settings: 100 μM squalene
Experimental: Myelinating co-cultures were established as described (Thomson, C. E. et al. 2008) with minor modifications. Briefly, E13 embryonic spinal cords were digested in 0.125% Trypsin solution in HBSS (without Ca^+2 and Mg^+2) at 37° C. for 20 min. After stopping the digestion with 1 ml plating media (DMEM, 25% horse serum, 25% HBSS, […] DNAse) the tissue was homogenized by gentle trituration and centrifuged for 5 min. 150,000 cells were plated per poly-L-lysine coated coverslip; 3 coverslips per 35 mm Petri dish. After cell attachment in plating media, differentiation media was added (low glucose DMEM, […] insulin, 10 ng ml^−1 biotin, 50 nM hydrocortisone, 0.5% N1-mix). N1 mix was 1 mg ml^−1 apo-transferrin, 20 mM putrescine, […] progesterone, and 6 mM sodium selenite. 50% media change was performed every 24-48 h with differentiation media. Squalene (100 μM) was added at day 3 to cultures. After 12 days, insulin was removed from differentiation media. […] Axonal (SM131) area and the area with myelin sheaths (MBP) of seven randomly chosen visual fields of myelinating co-cultures (×20 magnification) was measured by automated threshold with Fiji Software (SM131 Otsu, MBP Triangle). Specimens were analyzed on an Axiophot observer.Z1 (Zeiss) equipped with an AxioCam MRm and the ZEN 2012 blue edition software and evaluated with Image J software.

[1] = tested on: spinal cord tissue gene expression; test: RT-qPCR expression profile in spinal cord lysates of EAE mice; type: in vivo, mouse; settings: remission phase
Experimental: (§1) For tissue expression analyses, spinal cord tissue was dissected from ˜Th10-˜L5. RNA was isolated using QIAshredder and RNeasy protocols (Qiagen). Concentration and quality of RNA was evaluated using a NanoDrop spectrophotometer and RNA Nano (Agilent). cDNA was synthesized with Superscript III (Invitrogen) and quantitative PCRs were done in triplicates with the GoTaq qPCR Master Mix (Promega) on a 7500 Fast Real-Time PCR System (Applied Biosystems). Expression values were normalized to the mean of three—five housekeeping genes, HPRT (Hypoxanthin-Phosphoribosyl-Transferase 1) and Rplp0 (60S acidic ribosomal protein P), Rps13 (Ribosomal Protein S13), Gapdh (Glyceraldehyde-3-Phosphate Dehydrogenase), 18S (18S ribosomal RNA) and quantification was done by applying the ΔΔCt method, normalized to age matched untreated controls (set to 1). All primers were intron-spanning.

[2] = tested on: CD11b+ myeloid cells (microglia/macrophages); test: RT-qPCR expression profile in MACS isolated CD11b+ myeloid cells of EAE mice; type: in vivo, mouse
Excerpt: Microglia/Macrophages were isolated according to the adult brain dissociation protocol (Miltenyi biotec). Spinal cord was isolated on ice followed by removal of meninges. Antibody labeling steps were done according to the respective antibody Microbead kit protocol (Miltenyi biotec), oligodendrocytes (04, 130-096-670) and microglia (CD11 b, 130-093-636).
as §1

Plp1-tg mice = test: Elevated beam test in Plp1-tg mice (Pelizaeus-Merzbacher disease model); type: in vivo, mouse; settings: 0.5% [v/w] squalene diet between 2 and 12 weeks of age (FIG. 14a)
Excerpt: (§2) Plp1 transgenic Plp1-tg, line #72 mice (Readhead et al., 1994, Stumpf, Berghoff et al., 2019) harbor three copies of the murine Plp1 gene. Dietary treatment was applied between 2 and 12 weeks of age.
(§3) Dietary supplementation with squalene (0.5% [v/w]).
To assess bilateral sensorimotor coordination that involves connecting white matter structures, elevated beam test (in-house made, MPI of experimental medicine) was applied. Mice were trained to run toward a hiding box on a beam (width 1.5 cm) one week before testing. In one testing session number of slips in a defined 55 cm distance over three repeats was counted. Mean number of slips after three testing sessions (8 weeks, 10 weeks and 12 weeks) was quantified.

[3] = tested on: peripheral inflammatory cells; test: Flow cytometry of peripheral inflammatory cells per ml blood in EAE; type: in vivo, mouse; settings: peak of EAE disease (day 16), therapeutic squalene vs normal chow (FIG. 3a-c)
Experimental: (§4) Single-cell suspensions from spinal cords were obtained via mechanical dissociation on a cell strainer. Immune cells were separated over a two-phase Percoll-density gradient (70%/30%). Blood was collected by cardiac puncture in EDTA (80 mM) and single-cell suspension was obtained by centrifugation over lymphocyte separation medium (LSM 1077, PAA). Staining of abTCR/CD4 T cells, abTCR/CD8 T cells and CD45/CD11 b cells (macrophages/microglia) was performed using the following antibodies in a 1:200 dilution:Anti-CD3e (clone 145-2C11), BioLegend; anti-CD4 (clone GK 1.5), BD; anti-CD8 (clone 53-6.7), BD; […]; anti-CD11b (clone M1/70), BioLegend; anti-CD45.2 (clone 104), BioLegend. The addition of Calibrite APC beads (BD) allowed for cell quantification. Flow cytometry was performed using a FACSCalibur operated by Cell Quest software (Becton Dickinson).

[4] = tested on: lysolecithin induced lesions; test: Remyelination in lysolecithin induced spinal cord lesions; type: in vivo, mouse; settings: 14 days post lesion
Experimental: Focal spinal cord demyelinating lesions were induced under MMF anesthesia (1.0 mg kg^−1 midazolam, 0.05 mg kg^−1 medetomidine and 0.02 mg kg^−1 fentanyl) by stereotactic injection of 1 μl lysolecithin (1%, from egg yolk, alpha-lysophosphatidyl-choline, Sigma) into the left and right ventro-lateral funiculus at Th10 of 8-week old animals. The injection was performed at a rate of ˜1 μl min^−1. This procedure created fusiform demyelinating lesions, 5-6 mm in length. At the day of injection, mice were randomly assigned to normal or 0.5% [v/w] squalene supplemented chow for 14 days, after which the animals were killed, and the spinal cord processed for histology. For serum isolation, blood was collected by cardiac puncture, and serum was prepared after 4 h clotting by centrifugation.
Mice were perfused with 4% paraformaldehyde (PFA). Spinal cord tissue was postfixed overnight, embedded in paraffin and cut into […] sections (HMP 110, MICROM). For immunohistological analyses, sections were deparaffinized followed by antigen-retrieval in sodium citrate buffer (0.01 M, pH 6.0). For immunofluorescence, sections were blocked with serum free protein block (Dako). Primary antibodies were diluted in 2% bovine serum albumin (BSA)/PBS and incubated for 48 h followed by fluorophor coupled secondary antibodies. Lesion area (DAPI clustered nuclei), oligodendrocyte cell number (CAll, carbonic anhydrase 2) and myelin positive area (MBP, myelin basic protein) were evaluated.

[5] = tested on: inflammatory cells in brain and spinal cord tissue; test: Flow cytometry of inflammatory cells in brain and spinal cord of Plp1-tg mice; type: in vivo, mouse; settings: 0.5% [v/w] squalene diet between 2 and 12 weeks of age (FIG. 14b)
Experimental: as §4, §2, §3

[6] = tested on: MOG35-55 induced EAE animals; test: Clinical score of MOG35-55 induced EAE animals; type: in vivo, mouse
Experimental: For MOG-EAE, mice purchased from Charles River were immunized subcutaneously with […] myelin oligodendrocyte glycoprotein peptide 35-55 (MOG35-55) in complete Freund's adjuvant (M. tuberculosis at 3.75 mg ml^−1) and i.p. injected twice with 500 ng pertussis toxin. Animals were examined daily and scored for clinical signs of the disease. […] The clinical score was: 0 normal; 0.5 loss of tail tip tone; 1 loss of tail tone; 1.5 ataxia, mild walking deficits (slip off the grid); 2 mild hind limb weakness, severe gait ataxia, twist of the tail causes rotation of the whole body; 2.5 moderate hind limb weakness, cannot grip the grid with hind paw, but able to stay on a upright tilted grid; 3 mild paraparesis, falls down from a upright tiled grid; 3.5 paraparesis of hind limbs (legs strongly affected, but move clearly); 4 paralysis of hind limbs, weakness in forelimbs; 4.5 forelimbs paralyzed; 5 moribund/dead. […] DMHCA (Avanti) was dissolved in corn oil (Sigma) and given therapeutically in chow at a dosage of 8 mg kg^−1. IFNβ1b (Bayer) was administrated by daily intraperitoneal (i.p.) injections 30.000 U per animal.

[7] = tested on: inflammatory cells in spinal cord tissue; test: Flow cytometry of inflammatory cells per gram spinal cord in EAE; type: in vivo, mouse; settings: peak of EAE disease (day 16), therapeutic squalene vs normal chow (FIG. 2)
[8] = prophylactic squalene vs chow fed controls (FIG. 4a)
[9] = prophylactic squalene vs chow fed controls (FIG. 4b)
[10] = acute phase (15 days post immunization), prophylactic squalene vs chow (FIG. 5a)

Q: `CC(C)=CCCC(C)=CCC/C(C)=C/CC/C=C(\C)CC/C=C(\C)CCC=C(C)C` (stereo in doubt) [squalene, (6E,10E,14E,18E)-2,6,10,15,19,23-hexamethyltetracosa-2,6,10,14,18,22-hexaene] was tested. Which “MBP positive area normalized to SM131 positive axons” value (myelinating co-cultures; 21 DIV (FIG. 7)) did it give?
A: increased MBP positive area

Q: And the “MBP positive area normalized to SM131 positive axons” value (myelinating co-cultures; 30 DIV (FIG. 7))?
A: increased MBP positive area

Q: What about the “Expression of cholesterol export genes (Abca1, Abcg1, Abcg4, Apoe, Clu)” value [1, 8] of the same compound?
A: significantly increased expression

Q: What about the “Expression of cholesterol synthesis genes (Hmgc1, Hmgcr, Fdft1, Dhcr24, Cyp51a1, Mvk)” value [1, 8] of the same compound?
A: significantly increased expression

Q: What about the “Expression of cholesterol uptake genes (Ldlr, Vldlr, Apobr, Lrp1, Lrp2)” value [1, 8] of the same compound?
A: significantly increased expression

Q: And the “Expression of genes related to myelination and oligodendrocyte differentiation (Plp1, Car2, Olig2, Pdgfra, Cspg4)” value [1, 8]?
A: significantly increased expression

Q: What about the “Expression of pro-inflammatory mediator genes” value [1, 9] of the same compound?
A: reduced expression

Q: What about the “Gene expression of the anti-inflammatory molecules 1110 and Tgfb1” value [1, 9] of the same compound?
A: significantly increased

Q: And the “Expression levels of pro-inflammatory mediator genes such as TNF and IL1β” value [2, 10]?
A: reduced expression levels

Q: What about the “Expression of anti-inflammatory molecules such as TGFβ1” value [2, 10] of the same compound?
A: increased expression

Q: What about the “Expression of cholesterol export genes Abca1 and Apoe” value ([2]; acute phase, prophylactic squalene vs untreated control (FIG. 5b)) of the same compound?
A: upregulated

Q: What about the “Clinical disease severity by elevated beam testing (number of slips)” value (Plp1-tg mice) of the same compound?
A: high potential to ameliorate clinical disease severity

Q: And the “Number of peripheral immune cells (abTCR/CD4+, abTCR/CD8+, CD45+/CD11b+) per ml blood” value [3]?
A: did not observe differences

Q: And the “Number of CAII positive mature oligodendrocytes within lesion area” value ([4]; 0.5% [v/w] squalene chow from day of lesion induction vs control (FIG. 6b))?
A: strongly increased

Q: And the “Degree of MBP positive myelinated axons within lesion area” value ([4]; 0.5% [v/w] squalene chow from day of lesion induction vs control (FIG. 6f))?
A: strongly increased

Q: And the “Size of the lesion area (DAPI positive increased nuclear density)” value ([4]; 0.5% [v/w] squalene chow vs control (FIG. 6c))?
A: comparable

Q: And the “Number of inflammatory cells per gram brain” value [5]?
A: reduced number of inflammatory cells

Q: And the “Number of inflammatory cells per gram spinal cord” value [5]?
A: reduced number of inflammatory cells

Q: And the “Mean clinical score (EAE disease severity)” value ([6]; prophylactic regimen, 0.5% [v/w] squalene chow from 14 days before immunization (FIG. 1a, 1c))?
A: ameliorate disease severity; also recorded: more effective prophylactic effect than the treatment of multiple sclerosis with interferon beta-1b

Q: And the “Mean clinical score (EAE disease severity)” value ([6]; therapeutic regimen, 0.5% [v/w] squalene chow from day of disease onset (FIG. 1b))?
A: ameliorate disease severity

Q: What about the “Mean clinical score (EAE disease severity)” value ([6]; therapeutic regimen, squalene 0.03% [v/w] (FIG. 10a, 10b)) of the same compound?
A: Disease amelioration was already present

Q: What about the “Mean clinical score (EAE disease severity), dose comparison” value ([6]; therapeutic regimen, squalene 0.03% [v/w], 0.5% [v/w] and 5% [v/w] (FIG. 10a)) of the same compound?
A: dose depend

Q: And the “Number of CD11b+/CD45+ myeloid cells per gram spinal cord” value [7]?
A: reduced numbers

Q: And the “Number of inflammatory CD4+ T cells per gram spinal cord” value [7]?
A: reduced numbers

Q: What about the “Number of inflammatory CD8+ T cells per gram spinal cord” value [7] of the same compound?
A: reduced numbers
